For this assay, the target named is T1, recombinant human Meningioma Expressed Antigen 5 (MGEA5), also referred to as O-GlcNAcase (OGA) (Homo sapiens, UniProt O60502).
T1 construct: Full length OGA enzyme was purchased at OriGene (cat #TP322411); purchased OriGene TP322411
T1 sequence (O60502 1-916): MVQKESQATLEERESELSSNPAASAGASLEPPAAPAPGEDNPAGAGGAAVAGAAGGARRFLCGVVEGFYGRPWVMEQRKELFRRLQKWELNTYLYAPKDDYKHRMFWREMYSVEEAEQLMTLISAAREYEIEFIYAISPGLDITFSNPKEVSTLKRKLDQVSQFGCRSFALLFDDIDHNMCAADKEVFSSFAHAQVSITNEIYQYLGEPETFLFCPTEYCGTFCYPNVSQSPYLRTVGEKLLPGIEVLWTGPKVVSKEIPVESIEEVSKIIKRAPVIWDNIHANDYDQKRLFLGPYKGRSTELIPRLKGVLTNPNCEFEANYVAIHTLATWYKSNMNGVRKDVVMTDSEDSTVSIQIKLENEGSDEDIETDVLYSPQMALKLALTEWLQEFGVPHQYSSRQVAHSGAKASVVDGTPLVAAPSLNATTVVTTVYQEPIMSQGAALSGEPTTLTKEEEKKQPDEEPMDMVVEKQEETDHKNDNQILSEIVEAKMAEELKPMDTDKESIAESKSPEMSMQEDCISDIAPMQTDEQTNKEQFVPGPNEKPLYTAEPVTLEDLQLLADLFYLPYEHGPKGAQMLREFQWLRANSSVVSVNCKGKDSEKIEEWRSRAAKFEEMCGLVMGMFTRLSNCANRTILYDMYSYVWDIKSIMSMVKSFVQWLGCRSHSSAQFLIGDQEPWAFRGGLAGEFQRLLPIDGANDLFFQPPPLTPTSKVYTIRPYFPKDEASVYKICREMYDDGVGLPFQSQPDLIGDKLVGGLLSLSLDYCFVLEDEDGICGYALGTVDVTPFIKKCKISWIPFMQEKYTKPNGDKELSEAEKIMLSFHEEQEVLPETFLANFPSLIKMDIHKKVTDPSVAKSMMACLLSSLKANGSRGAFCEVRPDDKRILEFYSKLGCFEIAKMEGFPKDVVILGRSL
Description: OGA biochemical assay (inhibition of FM-GlcNAc hydrolysis, fluorescence). The settings on record: FM-GlcNAc substrate. A digest of the protocol:
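Full-length OGA (2 nM) pre-incubated 60 min at room temperature with compound, then FM-GlcNAc (100 uM final) hydrolysed 6 h at room temperature in 200 mM citrate/phosphate pH 7.2 with 0.005% Tween-20. Stopped with carbonate pH 11.0; fluorescein read at ex 485/em 538 nm. IC50 and Hill coefficient from curve fit between no-inhibitor and saturating-standard controls.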

Structures are written as SMILES.

On to `Cc1cc(C2CCCN(C(C)c3ccc4sc(C)nc4n3)C2)cc(C)n1` (racemic) [Compound 39], for which the IC50 (6 h at room temperature, read-out: Enzymatic hOGA, pIC50 (converted)) is 12.6 nM. Moreover, the Emax (maximal effect, read-out: Enzymatic Emax (%)) was determined as 99%.

The values above are taken from US20210115040A1, “OGA INHIBITOR COMPOUNDS” (Janssen Pharmaceutica NV, priority 2018, published 2021).
